Test results published in PubChem BioAssay AID686920 (Broad Institute, 2013).

The molecules below were run on A673 NR0B1-luciferase reporter, viability-normalised luminescence (assay: suppressors of NR0B1-promoter luciferase reporter, dose response, EWS/Fli inhibitor project, luciferase luminescence, A673 cells, cherry-pick (AID 686920)).

Compound	AC35
O=C(C[C@@H]1C[C@H]2c3cc(NC(=O)CC4CC4)ccc3O[C@H]2[C@H](CO)O1)NCc1ccccc1F	40.3 µM
O=C(O)c1cccc(N/N=C/c2ccc(OC(F)(F)F)cc2)c1	2.26 µM
CN=c1scc(-c2ccccc2F)n1/N=C/c1ccc[nH]1	0.194 µM
CC(C)NC(=O)N(C)C[C@@H]1Oc2cc(C#Cc3ccc(F)cc3)ccc2S(=O)(=O)N([C@H](C)CO)C[C@H]1C	33.9 µM
COc1ccccc1-c1ccc(OCCCN2CCC(C(O)(c3ccccc3)c3ccccc3)CC2)cc1	13.3 µM
COC(=O)C[C@@H]1CC[C@@H]2[C@H](COc3ccc(NC(=O)c4ccc(F)c(F)c4)cc3C(=O)N2C)O1	64.7 µM
CC(C)CC#Cc1ccc([C@@H]2[C@@H](CO)N3CCCCN(S(=O)(=O)c4ccc(F)cc4)C[C@H]23)cc1	14.1 µM
CN1C(=O)c2cc(NC(=O)c3ccc(Cl)cc3)ccc2OC[C@@H]2O[C@@H](CC(=O)NCc3cccc(F)c3)CC[C@H]21	7.86 µM
O=C(C1CC1)N1C[C@@H]2N[C@H](C1)C2c1ccc(/C=C/c2ccccc2)cc1 (stereo partly specified)	26.1 µM
CCOc1cc2[nH]c(=S)n(Cc3ccc(C(=O)NCCN(CC)CC)cc3)c(=O)c2cc1OCC	31.1 µM
NC(Cc1ccc(C(F)(F)F)cc1)c1csc(NC(=O)Nc2ccccc2Cc2ccccc2)n1 (stereo unspecified)	17.6 µM
C=CCOc1ccccc1C(=O)/C=C1/C(=O)Nc2ccccc21	14.5 µM
CC(=O)Nc1ccc(S(=O)(=O)Nc2ccc(N3CCCCC3)cc2)cc1	8.66 µM
O=C(COC(=O)c1ccc[nH]c1=O)Nc1ccc(N2CCCCC2)cc1	0.283 µM
Cc1cc(C(=O)CN2C(=O)c3ccccc3S2(=O)=O)c(C)n1C(C)C	3.04 µM
COC1C(O)C(C)OC(OC2C(Oc3cccc4c(O)c5c(=O)oc6ccc(C)c7c(=O)oc(c34)c5c67)OC(C)C(O)C2O)C1O (stereo unspecified)	4.49 µM
C[C@H]1CN([C@@H](C)CO)C(=O)c2cc(N(C)C)ccc2O[C@@H]1CN(C)Cc1ccc(C(=O)Nc2ccccc2N)cc1	9.36 µM
COc1ccc(OC)c(Cc2cnc3nc(N)nc(N)c3c2C)c1	0.0922 µM
C[C@H]1CN([C@@H](C)CO)C(=O)Cc2cc(NC(=O)CCC(F)(F)F)ccc2O[C@H]1CN(C)Cc1ccc(C(=O)Nc2ccccc2N)cc1	6.66 µM
Cc1ccc2nc(-c3ccccc3)nn2c1	4.49 µM
Cc1ccc(/C=N/Nc2ccc3ccccc3n2)o1	4.21 µM
COc1ccc(CN(C)c2ncnc3sccc23)c(OC)c1OC	10.7 µM
Cc1cc(-c2nc3cc(F)ccc3s2)ccc1N	8.89 µM

Compound	AC35
Nc1nc(N)c(-c2cccc(C(F)(F)F)c2)c(Cc2cccc(C(F)(F)F)c2)n1	2.54 µM
CC(C)N1C/C(=C/c2cccnc2)C(=O)/C(=C/c2cccnc2)C1	10.8 µM
Cc1ccc2c(c1)C(=O)N1[C@H]3c4cc(Br)ccc4OC[C@@H]3[C@H](c3ccccc3)[C@]1(C)C(=O)N2	13.7 µM
Cc1ccc(C(C(=O)NCc2ccco2)N(C(=O)CNC(=O)c2cccs2)c2c(C)cc(C)cc2C)cc1 (stereo unspecified)	42 µM
CN=c1scc(-c2ccccc2F)n1/N=C/c1ccc(O)c(O)c1O	15.7 µM
C[C@H]1CN([C@@H](C)CO)C(=O)c2cc(NC(=O)C3CCCCC3)ccc2O[C@H]1CN(C)Cc1ccc(C(=O)Nc2ccccc2N)cc1	4.8 µM
O=C(Nc1cccc(S(=O)(=O)N2CCCC2)c1)c1ccc(Cl)nc1	8.45 µM
O=c1c2ccccc2oc2ccc(C#CC3(O)CCCCC3)cc12	14.1 µM
C=C1C(=O)C=C[C@]2(C)C[C@@H]3OC(=O)[C@](C)(O)[C@H]3C[C@@H]12	10.7 µM
C[C@@H]1CN([C@@H](C)CO)S(=O)(=O)c2ccc(C#CCN(C)C)cc2O[C@@H]1CN(C)Cc1ccncc1	60.2 µM
CCCCc1c(-c2ccccc2OC)ncn1Cc1ccc(C(C)(C)C)cc1	10 µM
Nc1ccc(Oc2ccccc2-c2ccccc2)cc1	2.49 µM
CC(=O)c1ccc(NC(=O)c2noc3c2CCC3)cc1	3.06 µM
C[C@@H]1CN([C@H](C)CO)C(=O)c2cc(NS(=O)(=O)c3ccc(Cl)cc3)ccc2O[C@@H]1CN(C)Cc1ccc(Cl)c(Cl)c1	29.1 µM
Cc1c(Cc2ccc3c(c2)OCO3)sc(NC(=O)C(C)(C)C)c1C#N	9.84 µM
COC(=O)C1=C(C)N(Cc2cccc(C(F)(F)F)c2)C(=NCc2ccc(OC)cc2)NC1c1cccc(F)c1 (stereo unspecified)	13.2 µM
COc1ccc(-c2ccc3c(c2)[C@H]2[C@H](CCN2S(=O)(=O)c2ccc(OC)cc2)[C@@H](CO)N3C)cc1	4.45 µM
C[C@@H]1CN([C@@H](C)CO)C(=O)c2cccc(NS(=O)(=O)c3ccc(F)cc3)c2O[C@@H]1CN(C)Cc1ccc(C(=O)Nc2ccccc2N)cc1	6.97 µM
CC(=O)OC1CC(OC2C(O)CC(OC3C(O)CC(OC4CCC5(C)C(CCC6C5CCC5(C)C(C7=CC(=O)OC7)CCC65O)C4)OC3C)OC2C)OC(C)C1OC1OC(CO)C(O)C(O)C1O (stereo unspecified)	0.0893 µM
Cc1ccc(/C=N/Nc2ccnc3cc(Cl)ccc23)c(C)c1	15.3 µM
CCN1C/C(=C/c2ccc(N3CCOCC3)cc2)C(=O)/C(=C/c2ccc(N3CCOCC3)cc2)C1	5.5 µM
C[C@@H]1CN([C@@H](C)CO)C(=O)c2cccc(NC(=O)CCCCCC(=O)Nc3ccccc3N)c2O[C@@H]1CN(C)Cc1ccc(Oc2ccccc2)cc1	6.74 µM
O=C(O)c1ccccc1C(=O)Nc1ccc(Oc2cccc3ccccc23)cc1	2.28 µM
